Results as given in ChEMBL document CHEMBL1201862, “PubChem BioAssay data set” (2004).
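Tested at 5 concentrations; 48 h exposure; 96-well plates; endpoints linearly interpolated, else capped at highest concentration. GI50 = concentration required for 50% inhibition of growth.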 Calls of active or inactive are those of the source. Cut-off read from the data, not from the text of the source: active = GI50 up to about 1.1 µM and inactive = higher.

Experiments:
Test in all cases: inhibition of tumour cell growth, NCI panel, 48 h
SK-MEL-2 = system: SK-MEL-2
CAKI-1 = system: CAKI-1
A549 = system: A549
EKVX = system: EKVX
UACC-62 = system: UACC-62
U-251 = system: U-251
HCC 2998 = system: HCC 2998
IGROV-1 = system: IGROV-1
KM12 = system: KM12
BT-549 = system: BT-549
SK-MEL-28 = system: SK-MEL-28
SK-MEL-5 = system: SK-MEL-5
NCI-H226 = system: NCI-H226
SK-OV-3 = system: SK-OV-3
OVCAR-8 = system: OVCAR-8
NCI-H522 = system: NCI-H522
HT-29 = system: HT-29
M14 = system: M14
HCT-116 = system: HCT-116
HOP-62 = system: HOP-62

Measured: GI50

Cc1ccc(S(=O)(=O)NC(=O)Nc2nc[nH]n2)cc1
inactive: SK-MEL-2 > 100 µM | CAKI-1 > 100 µM | A549 > 100 µM | EKVX > 100 µM | UACC-62 > 100 µM | U-251 > 100 µM | HCC 2998 > 100 µM | IGROV-1 > 100 µM | KM12 > 100 µM | BT-549 > 100 µM | SK-MEL-28 > 100 µM | SK-MEL-5 > 100 µM | NCI-H226 > 100 µM | SK-OV-3 > 100 µM | OVCAR-8 > 100 µM | NCI-H522 > 100 µM | HT-29 > 100 µM | M14 > 100 µM | HCT-116 > 100 µM | HOP-62 > 100 µM

Cc1ccc(NCCN(C)C)c2c(=O)c3cc(O)ccc3oc12
inactive: SK-MEL-2 20.6 µM | CAKI-1 10.6 µM | A549 6.25 µM | EKVX 15.7 µM | UACC-62 10.1 µM | U-251 8.2 µM | HCC 2998 11.9 µM | IGROV-1 12.3 µM | KM12 11.2 µM | BT-549 16.7 µM | SK-MEL-28 14.8 µM | SK-MEL-5 11.6 µM | NCI-H226 15.8 µM | SK-OV-3 13.4 µM | OVCAR-8 6.97 µM | NCI-H522 8.15 µM | HT-29 11.2 µM | M14 12.4 µM | HCT-116 4.86 µM | HOP-62 11 µM

COc1cn2c(cc1=O)COc1ccc(-c3ccccc3)cc1-2
inactive: SK-MEL-2 > 100 µM | CAKI-1 43.4 µM | A549 39.6 µM | EKVX 36 µM | UACC-62 44 µM | U-251 65.2 µM | HCC 2998 46.9 µM | IGROV-1 38.8 µM | KM12 52.1 µM | BT-549 24.7 µM | SK-MEL-28 > 100 µM | SK-MEL-5 23.5 µM | NCI-H226 64.6 µM | SK-OV-3 > 73.8 µM | OVCAR-8 > 76.4 µM | NCI-H522 27.9 µM | HT-29 45.4 µM | M14 45.4 µM | HCT-116 40 µM | HOP-62 83.6 µM

Cc1ccc2cccc(-c3cccc4ccccc34)c2n1
inactive: SK-MEL-2 15 µM | CAKI-1 26.6 µM | A549 29.5 µM | EKVX 21.4 µM | UACC-62 19.5 µM | U-251 12.7 µM | HCC 2998 12.1 µM | IGROV-1 26.5 µM | KM12 15 µM | BT-549 30.3 µM | SK-MEL-28 26.6 µM | SK-MEL-5 16.1 µM | NCI-H226 20.5 µM | SK-OV-3 23.7 µM | OVCAR-8 22.1 µM | NCI-H522 23.7 µM | HT-29 20.7 µM | M14 17.2 µM | HCT-116 17.8 µM | HOP-62 25.2 µM

COc1ccc(-c2oc3c(CC(=O)O)cccc3c(=O)c2OC)cc1
inactive: SK-MEL-2 > 100 µM | CAKI-1 21.6 µM | A549 > 100 µM | EKVX > 100 µM | UACC-62 > 100 µM | U-251 > 100 µM | HCC 2998 > 100 µM | IGROV-1 > 100 µM | BT-549 > 100 µM | SK-MEL-5 > 100 µM | NCI-H226 > 100 µM | SK-OV-3 > 100 µM | OVCAR-8 > 100 µM | NCI-H522 > 100 µM | HT-29 > 100 µM | M14 > 100 µM | HCT-116 > 100 µM | HOP-62 > 100 µM

COc1cc(/C=N/c2ccccn2)cc(OC)c1OC
inactive: SK-MEL-2 > 100 µM | CAKI-1 > 100 µM | A549 > 100 µM | EKVX > 100 µM | UACC-62 > 100 µM | U-251 > 100 µM | HCC 2998 > 100 µM | IGROV-1 > 100 µM | KM12 > 100 µM | BT-549 > 100 µM | SK-MEL-28 > 86.9 µM | SK-MEL-5 > 93.1 µM | NCI-H226 > 100 µM | SK-OV-3 > 63.8 µM | OVCAR-8 > 100 µM | NCI-H522 > 100 µM | HT-29 > 100 µM | M14 > 100 µM | HCT-116 > 100 µM | HOP-62 > 100 µM

O=S(=O)(Nc1nccs1)c1ccc(Nc2nc(-c3cccs3)nc3ccc(I)cc23)cc1
inactive: SK-MEL-2 38.5 µM | CAKI-1 9.91 µM | A549 26.7 µM | EKVX 2.22 µM | UACC-62 19.2 µM | U-251 11.5 µM | HCC 2998 13.2 µM | IGROV-1 17.4 µM | KM12 7.36 µM | BT-549 11.9 µM | SK-MEL-28 21.4 µM | SK-MEL-5 8.18 µM | NCI-H226 35.1 µM | SK-OV-3 24.7 µM | OVCAR-8 22.2 µM | NCI-H522 19.4 µM | HT-29 18.7 µM | M14 22.4 µM | HCT-116 8.97 µM | HOP-62 16.3 µM

COc1ccc(-c2oc3cc(O)c(OC)c(O)c3c(=O)c2O)cc1 [BETULETOL]
inactive: SK-MEL-2 > 51.8 µM | CAKI-1 6.03 µM | A549 3.33 µM | EKVX 18.9 µM | UACC-62 10.3 µM | U-251 4.47 µM | HCC 2998 19.3 µM | IGROV-1 15.1 µM | KM12 12 µM | BT-549 8.36 µM | SK-MEL-28 20.2 µM | SK-MEL-5 6.14 µM | NCI-H226 5.19 µM | SK-OV-3 6.22 µM | OVCAR-8 9.95 µM | NCI-H522 10.2 µM | HT-29 17.1 µM | M14 17.8 µM | HCT-116 8.75 µM | HOP-62 4.73 µM

COc1cccc(/C=C2\CCCCCC2=O)c1
inactive: SK-MEL-2 > 100 µM | CAKI-1 > 100 µM | A549 > 100 µM | EKVX > 100 µM | UACC-62 > 100 µM | U-251 65.3 µM | HCC 2998 > 100 µM | IGROV-1 > 100 µM | KM12 65.5 µM | BT-549 > 100 µM | SK-MEL-28 > 100 µM | SK-MEL-5 70.1 µM | NCI-H226 > 100 µM | SK-OV-3 > 100 µM | NCI-H522 > 100 µM | HT-29 > 100 µM | M14 > 100 µM | HCT-116 80.7 µM | HOP-62 > 100 µM

CC(NC(=O)OC(C)(C)C)C(=O)NC(Cc1ccccc1)C(=O)NCC(=O)ON=C1CCCC1 (centres undefined)
inactive: SK-MEL-2 > 100 µM | CAKI-1 > 100 µM | A549 > 100 µM | EKVX > 100 µM | UACC-62 > 100 µM | U-251 68.1 µM | HCC 2998 89.7 µM | IGROV-1 > 100 µM | KM12 57.4 µM | BT-549 > 100 µM | SK-MEL-28 > 100 µM | SK-MEL-5 > 100 µM | NCI-H226 > 100 µM | SK-OV-3 > 100 µM | OVCAR-8 > 100 µM | NCI-H522 32.7 µM | HT-29 > 100 µM | M14 53.3 µM | HCT-116 72.8 µM | HOP-62 > 100 µM

O=C(N(O)c1ccccc1Cl)C(O)(c1ccccc1)c1ccccc1
inactive: SK-MEL-2 > 100 µM | CAKI-1 30.2 µM | A549 71.1 µM | EKVX > 100 µM | UACC-62 45.8 µM | U-251 40.6 µM | HCC 2998 35.4 µM | IGROV-1 78.9 µM | KM12 36.1 µM | BT-549 60.1 µM | SK-MEL-28 93.3 µM | SK-MEL-5 50.6 µM | NCI-H226 > 100 µM | SK-OV-3 > 100 µM | OVCAR-8 76.2 µM | NCI-H522 33 µM | HT-29 85.7 µM | M14 54.1 µM | HCT-116 > 100 µM | HOP-62 > 100 µM

O=C1C(Cl)=C(N2CCN(CCOCCO)CC2)C(=O)c2ncccc21
inactive: SK-MEL-2 > 10 µM | CAKI-1 > 10 µM | A549 > 10 µM | EKVX > 10 µM | UACC-62 > 10 µM | U-251 > 10 µM | HCC 2998 > 10 µM | IGROV-1 > 10 µM | KM12 > 10 µM | BT-549 > 10 µM | SK-MEL-28 > 10 µM | SK-MEL-5 > 10 µM | NCI-H226 > 10 µM | SK-OV-3 > 10 µM | OVCAR-8 > 10 µM | NCI-H522 2.56 µM | HT-29 > 10 µM | M14 > 10 µM | HCT-116 5.07 µM | HOP-62 > 10 µM

COc1c(OC)c(OC)c(-c2cc(=O)c3c(OC)c(OC)c(OC)c(OC)c3o2)c(OC)c1OC
inactive: SK-MEL-2 56.6 µM | CAKI-1 43.4 µM | A549 35 µM | EKVX 59.8 µM | UACC-62 34.3 µM | U-251 30.1 µM | HCC 2998 28.7 µM | IGROV-1 25.5 µM | BT-549 34.5 µM | SK-MEL-28 90.2 µM | SK-MEL-5 24.2 µM | NCI-H226 54.2 µM | SK-OV-3 71.1 µM | OVCAR-8 31.1 µM | NCI-H522 16.2 µM | HT-29 28.8 µM | M14 44 µM | HCT-116 20.6 µM | HOP-62 81.8 µM

CCOC(=O)C(C(=O)OCC)C(=O)c1ccccc1C(=O)c1ccccc1
inactive: SK-MEL-2 > 100 µM | CAKI-1 > 100 µM | A549 > 100 µM | EKVX 26.1 µM | UACC-62 > 100 µM | U-251 > 100 µM | HCC 2998 > 100 µM | IGROV-1 > 100 µM | KM12 > 100 µM | BT-549 33.4 µM | SK-MEL-5 97.1 µM | NCI-H226 > 100 µM | SK-OV-3 > 100 µM | NCI-H522 > 100 µM | HT-29 28.4 µM | M14 > 100 µM | HCT-116 59 µM | HOP-62 > 100 µM
